Test results as given in ChEMBL document CHEMBL3994622, “Design and synthesis of new RAF kinase-inhibiting antiproliferative quinoline derivatives. Part 2: Diarylurea derivatives” (Eur J Med Chem, 2017).

Legend:
Assay type in all cases: functional
HOP-62 = assay: Growth inhibition of human HOP62 cells assessed as cell growth at 0.3 uM incubated for 48 hrs by sulforhodamine B assay relative to control; conditions: HOP-62, 48 h, read-out: Activity
T47D = assay: Growth inhibition of human T47D cells assessed as cell growth at 30 uM incubated for 48 hrs by sulforhodamine B assay relative to control; conditions: read-out: Activity
NCI-H322M [1] = assay: Growth inhibition of human NCI-H322M cells assessed as cell growth at 30 uM incubated for 48 hrs by sulforhodamine B assay relative to control; conditions: read-out: Activity
OVCAR-4 = assay: Growth inhibition of human OVCAR4 cells assessed as cell growth at 3 uM incubated for 48 hrs by sulforhodamine B assay relative to control; conditions: OVCAR-4, 48 h, read-out: Activity
KM12 [2] = assay: Growth inhibition of human KM12 cells assessed as cell growth at 0.3 uM incubated for 48 hrs by sulforhodamine B assay relative to control; conditions: KM12, 48 h, read-out: Activity
MOLT-4 = assay: Growth inhibition of human MOLT4 cells assessed as cell growth at 3 uM incubated for 48 hrs by sulforhodamine B assay relative to control; conditions: MOLT-4, 48 h, read-out: Activity
KM12 [3] = assay: Growth inhibition of human KM12 cells assessed as cell growth at 30 uM incubated for 48 hrs by sulforhodamine B assay relative to control; conditions: KM12, 48 h, read-out: Activity
SF-268 = assay: Growth inhibition of human SF268 cells assessed as cell growth at 0.3 uM incubated for 48 hrs by sulforhodamine B assay relative to control; conditions: SF-268, 48 h, read-out: Activity
Hs-578T = assay: Growth inhibition of human Hs 578T cells assessed as cell growth at 0.3 uM incubated for 48 hrs by sulforhodamine B assay relative to control; conditions: read-out: Activity
M14 = assay: Growth inhibition of human M14 cells assessed as cell growth at 0.3 uM incubated for 48 hrs by sulforhodamine B assay relative to control; conditions: M14, 48 h, read-out: Activity
SR = assay: Growth inhibition of human SR cells assessed as cell growth at 30 uM incubated for 48 hrs by sulforhodamine B assay relative to control; conditions: read-out: Activity
COLO 205 = assay: Growth inhibition of human COLO205 cells assessed as cell growth at 30 uM incubated for 48 hrs by sulforhodamine B assay relative to control; conditions: COLO 205, 48 h, read-out: Activity
BT-549 = assay: Growth inhibition of human BT549 cells assessed as cell growth at 3 uM incubated for 48 hrs by sulforhodamine B assay relative to control; conditions: BT-549, 48 h, read-out: Activity
NCI-H226 = assay: Growth inhibition of human NCI-H226 cells assessed as cell growth at 3 uM incubated for 48 hrs by sulforhodamine B assay relative to control; conditions: NCI-H226, 48 h, read-out: Activity
PC-3 = assay: Growth inhibition of human PC3 cells assessed as cell growth at 0.3 uM incubated for 48 hrs by sulforhodamine B assay relative to control; conditions: PC-3, 48 h, read-out: Activity
NCI/ADR-RES = assay: Growth inhibition of human NCI/ADR-RES cells assessed as cell growth at 100 uM incubated for 48 hrs by sulforhodamine B assay relative to control; conditions: read-out: Activity
K562 [4] = assay: Growth inhibition of human K562 cells assessed as cell growth at 10 uM incubated for 48 hrs by sulforhodamine B assay relative to control; conditions: K562, 48 h, read-out: Activity
SF-295 = assay: Growth inhibition of human SF295 cells assessed as cell growth at 100 uM incubated for 48 hrs by sulforhodamine B assay relative to control; conditions: SF-295, 48 h, read-out: Activity
K562 [5] = assay: Growth inhibition of human K562 cells assessed as cell growth at 1 uM incubated for 48 hrs by sulforhodamine B assay relative to control; conditions: K562, 48 h, read-out: Activity
OVCAR-5 = assay: Growth inhibition of human OVCAR5 cells assessed as cell growth at 100 uM incubated for 48 hrs by sulforhodamine B assay relative to control; conditions: OVCAR-5, 48 h, read-out: Activity
CAKI-1 = assay: Growth inhibition of human Caki1 cells assessed as cell growth at 0.1 uM incubated for 48 hrs by sulforhodamine B assay relative to control; conditions: CAKI-1, 48 h, read-out: Activity
CCRF-CEM = assay: Growth inhibition of human CCRF-CEM cells assessed as cell growth at 10 uM incubated for 48 hrs by sulforhodamine B assay relative to control; conditions: read-out: Activity
KM12 [6] = assay: Growth inhibition of human KM12 cells assessed as cell growth at 1 uM incubated for 48 hrs by sulforhodamine B assay relative to control; conditions: KM12, 48 h, read-out: Activity
OVCAR-3 = assay: Growth inhibition of human OVCAR3 cells assessed as cell growth at 10 uM incubated for 48 hrs by sulforhodamine B assay relative to control; conditions: OVCAR-3, 48 h, read-out: Activity
MCF7 = assay: Growth inhibition of human MCF7 cells assessed as cell growth at 0.01 uM incubated for 48 hrs by sulforhodamine B assay relative to control; conditions: MCF7, 48 h, read-out: Activity
NCI-H322M [7] = assay: Growth inhibition of human NCI-H322M cells assessed as cell growth at 10 uM incubated for 48 hrs by sulforhodamine B assay relative to control; conditions: read-out: Activity
SF-539 = assay: Growth inhibition of human SF539 cells assessed as cell growth at 10 uM incubated for 48 hrs by sulforhodamine B assay relative to control; conditions: SF-539, 48 h, read-out: Activity
KM12 [8] = assay: Growth inhibition of human KM12 cells assessed as cell growth at 100 uM incubated for 48 hrs by sulforhodamine B assay relative to control; conditions: KM12, 48 h, read-out: Activity
A549 = assay: Growth inhibition of human A549/ATCC cells assessed as cell growth at 1 uM incubated for 48 hrs by sulforhodamine B assay relative to control; conditions: A549, 48 h, read-out: Activity
MDA-MB-435 = assay: Growth inhibition of human MDA-MB-435 cells assessed as cell growth at 1 uM incubated for 48 hrs by sulforhodamine B assay relative to control; conditions: MDA-MB-435, 48 h, read-out: Activity
SK-MEL-28 = assay: Growth inhibition of human SK-MEL-28 cells assessed as cell growth at 100 uM incubated for 48 hrs by sulforhodamine B assay relative to control; conditions: SK-MEL-28, 48 h, read-out: Activity
DU-145 = assay: Growth inhibition of human DU145 cells assessed as cell growth at 0.1 uM incubated for 48 hrs by sulforhodamine B assay relative to control; conditions: DU-145, 48 h, read-out: Activity
HCT-15 = assay: Growth inhibition of human HCT15 cells assessed as cell growth at 10 uM incubated for 48 hrs by sulforhodamine B assay relative to control; conditions: HCT-15, 48 h, read-out: Activity
HL-60(TB) = assay: Growth inhibition of human HL-60(TB) cells assessed as cell growth at 10 uM incubated for 48 hrs by sulforhodamine B assay relative to control; conditions: HL-60, 48 h, read-out: Activity

Compound	growth at 0.3 µM (HOP-62) [%]	growth at 30 µM (T47D) [%]	growth at 30 µM (NCI-H322M [1]) [%]	growth at 3 µM (OVCAR-4) [%]	growth at 0.3 µM (KM12 [2]) [%]	growth at 3 µM (MOLT-4) [%]	growth at 30 µM (KM12 [3]) [%]	growth at 0.3 µM (SF-268) [%]	growth at 0.3 µM (Hs-578T) [%]	growth at 0.3 µM (M14) [%]	growth at 30 µM (SR) [%]	growth at 30 µM (COLO 205) [%]	growth at 3 µM (BT-549) [%]	growth at 3 µM (NCI-H226) [%]	growth at 0.3 µM (PC-3) [%]	growth at 100 µM (NCI/ADR-RES) [%]	growth at 10 µM (K562 [4]) [%]	growth at 100 µM (SF-295) [%]	growth at 1 µM (K562 [5]) [%]	growth at 100 µM (OVCAR-5) [%]	other results
COc1cc2cc(Oc3ccc(NC(=O)Nc4ccc(Cl)c(C(F)(F)F)c4)cc3)c(C)nc2cc1OC	86	-30	-86	23	96	10	-84	100	84	94	-43	-92	12	11	83						
COc1cc2cc(Oc3ccc(NC(=O)Nc4ccc(Cl)c(Cl)c4)cc3)c(C)nc2cc1OC																-46	15	-56	88	-44	growth at 0.1 µM (CAKI-1): 87%; growth at 10 µM (CCRF-CEM): 4%; growth at 1 µM (KM12 [6]): 93%; growth at 10 µM (OVCAR-3): -25%; growth at 0.01 µM (MCF7): 95%; growth at 10 µM (NCI-H322M [7]): 47%; growth at 10 µM (SF-539): 29%; growth at 100 µM (KM12 [8]): -58%; growth at 1 µM (A549): 66%; growth at 1 µM (MDA-MB-435): 85%; growth at 100 µM (SK-MEL-28): -77%; growth at 0.1 µM (DU-145): 110%; growth at 10 µM (HCT-15): 19%; growth at 10 µM (HL-60(TB)): -22%
Cc1nc2cc(O)c(O)cc2cc1Oc1ccc(NC(=O)Nc2ccc(Cl)c(Cl)c2)cc1	108	10	19	87	104	87	-1	107	91	93	-20	16	78	102	97						
COc1cc2cc(Oc3ccc(NC(=O)Nc4cc(C(F)(F)F)cc(C(F)(F)F)c4)cc3)c(C)nc2cc1OC																-45	-47	-84	32	-78	growth at 0.1 µM (CAKI-1): 90%; growth at 10 µM (CCRF-CEM): -33%; growth at 1 µM (KM12 [6]): 48%; growth at 10 µM (OVCAR-3): -90%; growth at 0.01 µM (MCF7): 85%; growth at 10 µM (NCI-H322M [7]): -85%; growth at 10 µM (SF-539): -72%; growth at 100 µM (KM12 [8]): -74%; growth at 1 µM (A549): 65%; growth at 1 µM (MDA-MB-435): 84%; growth at 100 µM (SK-MEL-28): -73%; growth at 0.1 µM (DU-145): 100%; growth at 10 µM (HCT-15): -91%; growth at 10 µM (HL-60(TB)): -41%
